Results as given in patent US20190167694A1, “NEW THERAPEUTICS USES” (NOVARTIS AG, priority 2016, published 2019).

Key:
[1] = test system: TEC-family kinases (ITK, TEC, and TXK); experiment: Cellular IL-2 production assay in Jurkat cells (CD3/CD28 stimulation, ELISA); format: cell-based; conditions: Homo sapiens, read-out: IC50, IL2-Production
Description: The cellular IL-2 Production assay was carried out using Jurkat cells.

[2] = test system: Human CD4 T cell; experiment: Human CD4 T cell proliferation assay (Cell Titer Glo); format: cell-based; conditions: 96 h, anti-CD3/anti-CD28 beads, 4 days
Description: In the Human CD4 T cell assay, primary human CD4+ T cells isolated from a leukopak were cultured in the presence of anti-CD^3/anti-CD28 beads to stimulate T cell proliferation.

[3] = molecular target: T1, TEC (Homo sapiens, UniProt P42680); experiment: Biochemical TEC assay (Caliper LabChip)
T1 sequence (P42680 1-631): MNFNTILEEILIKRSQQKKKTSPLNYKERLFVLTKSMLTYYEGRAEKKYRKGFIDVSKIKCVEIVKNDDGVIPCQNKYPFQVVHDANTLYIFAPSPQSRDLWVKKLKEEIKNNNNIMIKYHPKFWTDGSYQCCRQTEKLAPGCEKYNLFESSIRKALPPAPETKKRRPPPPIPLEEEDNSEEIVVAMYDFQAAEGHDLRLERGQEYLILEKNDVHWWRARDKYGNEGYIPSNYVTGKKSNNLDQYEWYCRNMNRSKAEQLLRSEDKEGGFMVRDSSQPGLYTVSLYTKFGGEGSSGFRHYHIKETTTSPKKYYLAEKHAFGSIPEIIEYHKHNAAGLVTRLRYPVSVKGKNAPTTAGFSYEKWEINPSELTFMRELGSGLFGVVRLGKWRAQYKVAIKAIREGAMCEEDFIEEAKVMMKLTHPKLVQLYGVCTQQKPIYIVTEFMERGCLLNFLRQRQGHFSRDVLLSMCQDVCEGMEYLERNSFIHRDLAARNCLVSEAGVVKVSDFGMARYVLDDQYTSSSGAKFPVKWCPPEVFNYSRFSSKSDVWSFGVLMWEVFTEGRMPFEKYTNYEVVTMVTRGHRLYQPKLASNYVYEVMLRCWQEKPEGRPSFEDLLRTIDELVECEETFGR

[4] = molecular target: T2, TXK (Homo sapiens, UniProt P42681); experiment: Biochemical TXK assay (Caliper LabChip)
T2 sequence (P42681 1-527): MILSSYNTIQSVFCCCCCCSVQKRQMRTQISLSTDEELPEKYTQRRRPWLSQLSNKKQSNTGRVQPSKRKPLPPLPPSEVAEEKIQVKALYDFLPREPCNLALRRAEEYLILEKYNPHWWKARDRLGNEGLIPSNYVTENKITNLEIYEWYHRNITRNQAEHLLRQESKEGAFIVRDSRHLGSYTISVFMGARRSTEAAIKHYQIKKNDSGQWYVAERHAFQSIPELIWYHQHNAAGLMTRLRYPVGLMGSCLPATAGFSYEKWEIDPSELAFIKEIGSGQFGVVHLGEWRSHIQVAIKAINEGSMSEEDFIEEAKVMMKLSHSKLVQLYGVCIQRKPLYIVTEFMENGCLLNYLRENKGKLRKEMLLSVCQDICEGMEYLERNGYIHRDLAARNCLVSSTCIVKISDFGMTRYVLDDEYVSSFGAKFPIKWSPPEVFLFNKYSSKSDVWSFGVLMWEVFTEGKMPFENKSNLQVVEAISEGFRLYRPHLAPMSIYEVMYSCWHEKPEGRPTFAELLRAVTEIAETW
Description: The biochemical assays for ITK, TEC and TXK were carried out using Caliper Life Sciences' proprietary LabChip™ technology. This technology uses a microfluidic chip to measure the conversion of a fluorescent peptide substrate to a phosphorylated product. The product conversions were determined in the presence of various compound concentrations and IC50 values were calculated.

[5] = test system: anti-KLH IgM and anti-KLH IgG antibodies; experiment: T-cell dependent antibody response (TDAR) assay in rats, KLH immunization; format: in vivo, rat; conditions: for anti-KLH IgG, mean percent difference compared to vehicle controls / anti-KLH IgM, mean percent difference compared to vehicle controls: 30 mg/kg/day oral
Description: T-cells play critical roles in immune regulation. T-cell Tec family kinases are important players in T-cell function, which in turn can modulate immune function. COMPOUND A was tested in a T-cell dependent antibody response (TDAR) assay, a frequently used functional assessment of the immune system. […] On study days 11 and 25 for the main study animals and days 28 and 42 for the recovery group, animals received 300 μg of KLH (Keyhole Limpet Hemocyanin) antigen. Samples for serology assessment of anti-KLH IgM and anti-KLH IgG antibodies (study days 19, 21, 23, 25 and 36 prior to dosing from the main study animals; recovery days 42 and 53 prior to KLH injection from the recovery animals) were collected. Immunomodulatory responses in COMPOUND A-treated animals following KLH immunization were noted when values were compared to concurrent vehicle controls. […] The decreases were also observed in mean anti-KLH IgM values on study days 21, 23, 25 (primary response, time course) and day 36 (post boosting) for female rats. For anti-KLH IgG antibodies, decreases in mean concentration were apparent on study days 19, 21, 23 and 25 for both male and female rats. On study day 36, decreases in mean concentration were detected in female rats. Recovery following withdrawal of COMPOUND A treatment was noted. The COMPOUND A-related decrease of anti-KLH antibody production in both male and female rats was reversible. This included both primary response-anti-KLH IgM, and isotype switch measured by secondary anti-KLH IgG production as indicated by values that were similar to concurrent controls at the recovery sampling time points (recovery day 42 and 53).

[6] = test system: Mouse B cell; experiment: cells; conditions: 72 h, read-out: IC50, Mouse B cell proliferation
Description: Cells were incubated at 37° C. in the presence of various concentrations of compound. After 3 days, cell viability was measured using Cell Titer Glo.

[7] = test system: BTK (TMD-8); experiment: cells; conditions: Homo sapiens, TMD8, 72 h, read-out: IC50, BTK (TMD-8) proliferation
Description: After 3 days, cell viability was measured using Cell Titer Glo.

[8] = female rats, study day 36 (post boosting)

Compound: C=CC(=O)N1CCC[C@@H](n2nc(-c3ccc(Oc4ccccc4)cc3)c3c(N)ncnc32)C1 [Ibrutinib, ibrutinib, reference compound]
- IC50 [1]: 284 nM

Compound: Cc1cc(C(=O)Nc2nc3cccc(Cl)c3n2[C@@H]2CCCCN(C(=O)/C=C/CN(C)C)C2)ccn1 [COMPOUND A, (R,E)-N-(7-chloro-1-(1-(4-(dimethylamino)but-2-enoyl)azepan-3-yl)-1H-benzo[d]imidazol-2-yl)-2-methylisonicotinamide]
- IC50 [1]: 21 nM
- IC50 [2]: 140 nM
- IC50, TEC biochemical [3]: single digit nM potency
- IC50, TXK biochemical [4]: single digit nM potency
- anti-KLH IgG, mean percent difference compared to vehicle controls ([5]; female rats, study day 19): −96%
- anti-KLH IgM, mean percent difference compared to vehicle controls ([5]; female rats, study day 19): −88%
- anti-KLH IgG, mean percent difference compared to vehicle controls ([5]; female rats, study day 21): −98%
- anti-KLH IgM, mean percent difference compared to vehicle controls ([5]; female rats, study day 21): −75%
- anti-KLH IgG, mean percent difference compared to vehicle controls ([5]; female rats, study day 23): −97%
- anti-KLH IgM, mean percent difference compared to vehicle controls ([5]; female rats, study day 23): −71%
- anti-KLH IgG, mean percent difference compared to vehicle controls ([5]; female rats, study day 25): −96%
- anti-KLH IgM, mean percent difference compared to vehicle controls ([5]; female rats, study day 25): −63%
- anti-KLH IgG, mean percent difference compared to vehicle controls [5, 8]: −69%
- anti-KLH IgM, mean percent difference compared to vehicle controls [5, 8]: −67%
- reversibility of decrease of anti-KLH antibody production after withdrawal of treatment ([5]; male and female rats, 30 mg/kg/day, recovery days 42 and 53): reversible
- anti-KLH IgG, mean percent difference compared to vehicle controls ([5]; male rats, study day 19): −78%
- anti-KLH IgM, mean percent difference compared to vehicle controls ([5]; male rats, study day 19): −67%
- anti-KLH IgG, mean percent difference compared to vehicle controls ([5]; male rats, study day 21): −84%
- anti-KLH IgG, mean percent difference compared to vehicle controls ([5]; male rats, study day 23): −80%
- anti-KLH IgG, mean percent difference compared to vehicle controls ([5]; male rats, study day 25): −83%
- IC50 [6]: 295 nM
- IC50 [7]: 224 nM
